Results as given in patent US20250388591A1 (CSPC ZHONGQI PHARMACEUTICAL TECHNOLOGY (SHIJIAZHUANG) CO., …, priority 2022, published 2025).

Legend:
HCT116-WT cells = experiment: Cell proliferation inhibition, HCT116 wild-type (Cell Titer Glo, 5 days); type: cell-based; conditions: Homo sapiens, HCT-116, 120 h, 5 days treatment, maximum inhibition rate <50% expressed as IC50 > maximum initial concentration, read-out: HCT116 MTAP+/+ cell proliferation inhibitory activity IC50:
Protocol: (§1) The specific operation procedures were as follows. Tumor cells were treated with test compounds for 5 days, and the effect of the test compounds on the proliferation of tumor cells was evaluated. HCT116-MTAP^−/− and wild-type control HCT116-WT (colorectal cancer cells) cells were seeded in a 384-well plate at a density of 600 cells/well, and at the same time, different concentrations of the test compounds (starting from 20 μM, 10 concentration gradients) were added. The cells were incubated at 37° C., 5% CO2, and saturated humidity for 5 days.
(§2) Cell proliferation was detected using an ATP-based Cell Proliferation Assay Kit (Cell Titer Glo, Promega Corporation). Cells were equilibrated at room temperature for 30 minutes and then treated with Cell Titer Glo reagent. The plate was then covered with aluminum foil and shaken for 15 minutes to allow mixing well and lysis. Chemiluminescence detection was performed using a multifunctional microplate reader (Envision 2105, PerkinElmer). A blank well (blank, cell-free) and a DMSO control well were set.
(§3) The inhibition rate (IR) of the test compounds was calculated using the following formula: […]
(§4) GraphPad Prism was used for graphing, data analysis and IC50 calculations.

HCT116-MTAP−/− cells = experiment: Cell proliferation inhibition, HCT116 MTAP-/- (Cell Titer Glo, 5 days); type: cell-based; conditions: Homo sapiens, HCT-116, 120 h, 5 days treatment, read-out: HCT116 MTAP−/− cell proliferation inhibitory activity IC50:
Protocol: as §1, §2, §3, §4

MAT2A = molecular target: T1, MAT2A (Homo sapiens, UniProt P31153); experiment: MAT2A enzymatic assay (MAT2A Inhibitor Enzymatic Screening Kit); type: biochemical; conditions: MAT2A enzyme, colorimetric detection at 630 nm; read-out: Inhibitory activity against Enzyme (IC50: nM)
T1 construct: purchased BPS Bioscience
T1 sequence (P31153 whole entry): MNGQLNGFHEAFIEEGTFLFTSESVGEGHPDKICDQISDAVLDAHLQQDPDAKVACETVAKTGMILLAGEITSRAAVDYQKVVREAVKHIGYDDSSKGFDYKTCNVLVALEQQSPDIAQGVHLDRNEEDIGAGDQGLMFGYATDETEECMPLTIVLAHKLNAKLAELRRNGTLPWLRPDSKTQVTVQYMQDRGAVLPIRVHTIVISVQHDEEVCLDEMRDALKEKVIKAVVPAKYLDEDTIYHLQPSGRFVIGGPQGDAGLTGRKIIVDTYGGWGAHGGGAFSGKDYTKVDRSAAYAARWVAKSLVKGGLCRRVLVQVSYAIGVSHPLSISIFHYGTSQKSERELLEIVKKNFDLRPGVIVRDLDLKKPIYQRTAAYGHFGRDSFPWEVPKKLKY
Protocol: The inhibitory effect of the test compounds on the enzymatic activity of MAT2A was determined using MAT2A Inhibitor Enzymatic Screening Kit (BPS Bioscience).
1) Test compounds were dissolved in DMSO and mixed well until the test compounds were completely dissolved. All compounds were diluted with DMSO to a starting concentration of 2 mM, and diluted at a 3-fold ratio to a total of 10 concentration gradients. Duplicate wells were set. The compounds were added to the reaction system at a ratio of 1:100 (20 μM of the maximum final concentration) during detection. 100× positive control (1 mM AGI-24512) and 100× negative control (100% DMSO) were prepared.
2) 200 nL of each of the diluted compounds were transferred to each well of the reaction plate (Corning 3702) using an Echo 550 pipetting system, and the reaction plate was sealed with a sealing film, and centrifuged at 1000 g for 1 minute. The final concentration of DMSO was 1%.
3) Preparation of 1×MAT2A enzyme reaction buffer: 1× volume of 5×MAT2A enzyme reaction buffer was mixed well with 4× volumes of water.
4) 2×MAT2A enzyme solution was prepared with 1×MAT2A enzyme reaction buffer.
5) A 10 μL of 2×MAT2A enzyme solution was added to each well of the 384-reaction plate (Corning 3702), and the plate was sealed with a sealing film.
6) The plate was centrifuged at 1000 g for 60 seconds and incubated at room temperature for 30 minutes.
7) A mixture of 2×L-Methionine and ATP was prepared with 1×MAT2A enzyme reaction buffer.
8) 10 μL of the mixture of 2×L-Methionine and ATP was added to each well of the 384-reaction plate (Corning 3702), and the plate was sealed with a sealing film. The total reaction system was 20 μL.
9) The plate was centrifuged at 1000 g for 60 seconds and incubated at room temperature for 60 minutes.
10) The assay buffer Colorimetric Detection Rebgent was prepared.
11) 20 μL of the assay buffer was added to each well. The plate was centrifuged at 1000 g for 30 seconds and reacted at room temperature for 15 minutes.
12) Fluorescence signal at 630 nm was detected by a multifunctional microplate reader (PerkinElmer, Nivo).

An IC50 (HCT116-WT cells) of over 20000 nM, an IC50 (HCT116-MTAP−/− cells) of 199 nM and an IC50 (MAT2A) of at most 50 nM were found for `Cc1ncccc1-n1c(=O)nc2c3c(cc(Cl)cc31)CN2` [Compound A1, 7-chloro-1-(2-methylpyridin-3-yl)-4,5-dihydropyrrolo[2,3,4-de]quinazolin-2(1H)-one] in this work.

An IC50 (MAT2A) of over 100 nM was found for `Cc1ncccc1-n1c(=O)nc2c3c(cc(C(F)(F)F)nc31)CN2C` [Compound A19] in this work.

An IC50 (MAT2A) of over 100 nM was found for `CN1Cc2cc(C(F)(F)F)nc3c2c1nc(=O)n3-c1cccnc1Cl` [Compound A29] in this work.

An IC50 (MAT2A) of over 100 nM was found for `Cc1ncccc1-n1c(=O)nc2c3c(cc(Cl)cc31)OCCN2` [Compound B2, 9-chloro-1-(2-methylpyridin-3-yl)-5,6-dihydro-1H-[1,4]oxazepino[5,6,7-de]quinazolin-2(4H)-one] in this work.

An IC50 (HCT116-WT cells) of over 20000 nM, an IC50 (HCT116-MTAP−/− cells) of 20 nM and an IC50 (MAT2A) of at most 50 nM were found for `Cc1ncccc1-n1c(=O)nc2c3c(cc(Cl)cc31)CN2c1ccc2nn(C)cc2c1` [Compound A38, 7-chloro-4-(2-methyl-2H-indazol-5-yl)-1-(2-methylpyridin-3-yl)-4,5-dihydropyrrolo[2,3,4-de]quinazolin-2(1H)-one] in this work.

An IC50 (HCT116-WT cells) of 1350 nM, an IC50 (HCT116-MTAP−/− cells) of 308 nM and an IC50 (MAT2A) of at most 50 nM were found for `Cc1ncccc1-n1c(=O)nc2c3c(cc(Cl)cc31)CN2c1ccc(Cl)cc1` [Compound A39, 7-chloro-4-(4-chlorophenyl)-1-(2-methylpyridin-3-yl)-4,5-dihydropyrrolo[2,3,4-de]quinazolin-2(1H)-one] in this work.

An IC50 (MAT2A) of at most 50 nM was found for `Cc1ncccc1-n1c(=O)nc2c3c(cc(Cl)cc31)CN2c1ccccc1` [Compound A3, 7-chloro-4-phenyl-1-(2-methylpyridin-3-yl)-4,5-dihydropyrrolo[2,3,4-de]quinazolin-2(1H)-one] in this work.

An IC50 (HCT116-WT cells) of over 20000 nM, an IC50 (HCT116-MTAP−/− cells) of 45 nM and an IC50 (MAT2A) of at most 50 nM were found for `Cc1ncccc1-n1c(=O)nc2c3c(cc(Cl)cc31)CN2C` [Compound A2, 7-chloro-4-methyl-1-(2-methylpyridin-3-yl)-4,5-dihydropyrrolo[2,3,4-de]quinazolin-2(1H)-one] in this work.

An IC50 (HCT116-WT cells) of over 20000 nM, an IC50 (HCT116-MTAP−/− cells) of 112 nM and an IC50 (MAT2A) of at most 50 nM were found for `CN1Cc2cc(Cl)cc3c2c1nc(=O)n3-c1cccnc1Cl` [Compound A16, 7-chloro-4-methyl-1-(2-chloropyridin-3-yl)-4,5-dihydropyrrolo[2,3,4-de]quinazolin-2(1H)-one] in this work.

An IC50 (MAT2A) of at most 50 nM was found for `CN1Cc2cc(Cl)cc3c2c1nc(=O)n3-c1cccnc1Cl` (single isomer, unassigned) [Compound A16-P2, 7-chloro-4-methyl-1-(2-chloropyridin-3-yl)-4,5-dihydropyrrolo[2,3,4-de]quinazolin-2(1H)-one] in this work.

An IC50 (MAT2A) of 50 to 100 nM was found for `COc1ncccc1-n1c(=O)nc2c3c(cc(Cl)cc31)CN2C` [Compound A40, 7-chloro-1-(2-methoxypyridin-3-yl)-4-methyl-4,5-dihydropyrrolo[2,3,4-de]quinazolin-2(1H)-one] in this work.

An IC50 (MAT2A) of over 100 nM was found for `Cc1ncccc1-n1c(=O)nc2c3c(cc(Cl)cc31)CCCN2` [Compound B1, 9-chloro-1-(2-methylpyridin-3-yl)-4,5,6,7-tetrahydroazepino[2,3,4-de]quinazolin-2(1H)-one] in this work.

An IC50 (MAT2A) of at most 50 nM was found for `Cc1ncccc1-n1c(=O)nc2c3c(cc(C(F)(F)F)nc31)CCN2C` [Compound C1, 4-methyl-1-(2-methylpyridin-3-yl)-8-(trifluoromethyl)-5,6-dihydro-1H-pyrimidino[4,5,6-ij][2,7]naphthyridin-2(4H)-one] in this work.

An IC50 (MAT2A) of 50 to 100 nM was found for `Cc1ncccc1-n1c(=O)nc2c3c(cc(Cl)cc31)NCC(O)N2C` (stereo not drawn) [Compound B3, 9-chloro-5-hydroxy-4-methyl-1-(2-methylpyridin-3-yl)-4,5,6,7-tetrahydro-[1,4]diazepino[5,6,7-de]quinazolin-2(1H)-one] in this work.
